BindingDB's records for doi:10.7270/Q26M3571 (Nmmlsc, 2007)
pKi: −log10 of the molar value.

These compounds were tested against T1, N-formyl peptide receptor 2 (Homo sapiens, UniProt P25090) (assay: FPRL1 fluorescent ligand binding inhibitors, dose response, selectivity assay for FPR1 ligand SAR project, cell-based, flow cytometry, Ki from IC50 (AID 723)).
T1 sequence (P25090 whole entry): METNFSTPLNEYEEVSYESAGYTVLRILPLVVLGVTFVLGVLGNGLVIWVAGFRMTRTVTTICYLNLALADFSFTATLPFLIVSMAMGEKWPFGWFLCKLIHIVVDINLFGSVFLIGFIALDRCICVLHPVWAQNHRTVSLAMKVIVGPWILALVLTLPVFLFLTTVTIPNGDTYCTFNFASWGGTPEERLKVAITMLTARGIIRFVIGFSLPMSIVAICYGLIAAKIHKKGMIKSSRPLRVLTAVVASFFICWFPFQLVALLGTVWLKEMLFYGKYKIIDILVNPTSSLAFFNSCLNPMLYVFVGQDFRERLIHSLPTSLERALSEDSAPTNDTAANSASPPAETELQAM

pKi, < 4.39:
COc1ccc(C2C(C(=O)c3cccs3)C(=O)C(=O)N2CCCn2ccnc2)cc1 (stereo unspecified) [1-(3-imidazol-1-ylpropyl)-2-(4-methoxyphenyl)-4-oxidanyl-3-thiophen-2-ylcarbonyl-2H-pyrrol-5-one], COCCN1C(=O)C(=O)C(C(=O)c2ccccc2)C1c1ccc(C(C)C)cc1 (stereo unspecified) [(4E)-1-(2-methoxyethyl)-4-[oxidanyl(phenyl)methylidene]-5-(4-propan-2-ylphenyl)pyrrolidine-2,3-dione], COCCCN1C(=O)C(=O)C(C(=O)c2ccccc2)C1c1ccc(C(C)C)cc1 (stereo unspecified) [(4E)-1-(3-methoxypropyl)-4-[oxidanyl(phenyl)methylidene]-5-(4-propan-2-ylphenyl)pyrrolidine-2,3-dione], CCCCCCN1C(=O)C(=O)C(C(=O)c2ccccc2)C1c1ccc(O)c(OC)c1 (stereo unspecified) [(4Z)-1-hexyl-5-(3-methoxy-4-oxidanyl-phenyl)-4-[oxidanyl(phenyl)methylidene]pyrrolidine-2,3-dione], COc1ccc(C2C(C(=O)c3ccccc3)C(=O)C(=O)N2c2cccc(Cl)c2)c(OC)c1 (stereo unspecified) [(4E)-1-(3-chlorophenyl)-5-(2,4-dimethoxyphenyl)-4-[hydroxy(phenyl)methylene]pyrrolidine-2,3-quinone], CCCCCCOc1cccc(N2C(=O)C(=O)C(C(=O)c3ccccc3)C2c2cccc(F)c2)c1 (stereo unspecified) [(4Z)-5-(3-fluorophenyl)-1-(3-hexoxyphenyl)-4-[hydroxy(phenyl)methylene]pyrrolidine-2,3-quinone], N#Cc1c(N=C(CC(=O)c2ccccc2)C(=O)O)sc2c1CCC2 [(Z)-2-[(3-cyano-5,6-dihydro-4H-cyclopenta[b]thiophen-2-yl)amino]-4-keto-4-phenyl-but-2-enoic acid], Cc1ccc(C(=O)C2C(=O)C(=O)N(Cc3cccnc3)C2c2ccc(Br)cc2)cc1 (stereo unspecified) [(4E)-5-(4-bromophenyl)-4-[(4-methylphenyl)-oxidanyl-methylidene]-1-(pyridin-3-ylmethyl)pyrrolidine-2,3-dione], COCCCN1C(=O)C(=O)C(C(=O)c2ccccc2)C1c1ccc(O)c(OC)c1 (stereo unspecified) [(4E)-5-(3-methoxy-4-oxidanyl-phenyl)-1-(3-methoxypropyl)-4-[oxidanyl(phenyl)methylidene]pyrrolidine-2,3-dione], COc1ccc(C2C(C(=O)c3ccco3)C(=O)C(=O)N2CCCN2CCOCC2)cc1OC (stereo unspecified) [2-(3,4-dimethoxyphenyl)-3-(furan-2-carbonyl)-4-hydroxy-1-(3-morpholin-4-ylpropyl)-2H-pyrrol-5-one], O=C1C(=O)N(CN2CCOCC2)C(c2ccc(Br)cc2)C1C(=O)c1ccccc1 (stereo unspecified) [(4E)-5-(4-bromophenyl)-1-(morpholin-4-ylmethyl)-4-[oxidanyl(phenyl)methylidene]pyrrolidine-2,3-dione], COc1ccc(OC)c(C2C(C(=O)c3ccc(C)cc3)C(=O)C(=O)N2CCC(=O)O)c1 (stereo unspecified) [3-[(3E)-2-(2,5-dimethoxyphenyl)-3-[(4-methylphenyl)-oxidanyl-methylidene]-4,5-bis(oxidanylidene)pyrrolidin-1-yl]propanoic acid], COc1ccc(C2C(C(=O)c3ccccc3)C(=O)C(=O)N2CCCn2ccnc2)c(OC)c1 (stereo unspecified) [(4E)-5-(2,4-dimethoxyphenyl)-1-(3-imidazol-1-ylpropyl)-4-[oxidanyl(phenyl)methylidene]pyrrolidine-2,3-dione], O=C1C(=O)N(CCc2ccccc2)C(c2ccc(Cl)cc2)C1C(=O)c1cccs1 (stereo unspecified) [2-(4-chlorophenyl)-4-hydroxy-1-(2-phenylethyl)-3-(thiophene-2-carbonyl)-2H-pyrrol-5-one], COc1ccc(C2C(C(=O)c3ccc(C)cc3)C(=O)C(=O)N2Cc2cccnc2)c(OC)c1 (stereo unspecified) [(4E)-5-(2,4-dimethoxyphenyl)-4-[(4-methylphenyl)-oxidanyl-methylidene]-1-(pyridin-3-ylmethyl)pyrrolidine-2,3-dione], COc1ccc(OC)c(C2C(C(=O)c3ccccc3)C(=O)C(=O)N2c2ccc(C)c(Cl)c2)c1 (stereo unspecified) [(4E)-1-(3-chloranyl-4-methyl-phenyl)-5-(2,5-dimethoxyphenyl)-4-[oxidanyl(phenyl)methylidene]pyrrolidine-2,3-dione], O=C1C(=O)N(CCCn2ccnc2)C(c2cccnc2)C1C(=O)c1cc2ccccc2o1 (stereo unspecified) [3-(1-benzofuran-2-carbonyl)-4-hydroxy-1-(3-imidazol-1-ylpropyl)-2-pyridin-3-yl-2H-pyrrol-5-one], COc1ccc(C2C(C(=O)c3ccco3)C(=O)C(=O)N2CCN2CCOCC2)c(OC)c1 (stereo unspecified) [5-(2,4-dimethoxyphenyl)-4-(furan-2-carbonyl)-3-hydroxy-1-(2-morpholinoethyl)-1H-pyrrol-2(5H)-one], CC(C)c1ccc(C2C(C(=O)c3ccccc3)C(=O)C(=O)N2Cc2cccnc2)cc1 (stereo unspecified) [(4E)-4-[hydroxy(phenyl)methylene]-5-p-cumenyl-1-(3-pyridylmethyl)pyrrolidine-2,3-quinone], COCCN1C(=O)C(=O)C(C(=O)c2ccccc2)C1c1ccccc1OC (stereo unspecified) [(4E)-1-(2-methoxyethyl)-5-(2-methoxyphenyl)-4-[oxidanyl(phenyl)methylidene]pyrrolidine-2,3-dione], COc1ccc(OC)c(C2C(C(=O)c3ccccc3)C(=O)C(=O)N2c2cccnc2)c1 (stereo unspecified) [(4E)-5-(2,5-dimethoxyphenyl)-4-[hydroxy(phenyl)methylene]-1-(3-pyridyl)pyrrolidine-2,3-quinone], COc1cc(C2C(C(=O)c3cc4ccccc4o3)C(=O)C(=O)N2CCN(C)C)ccc1O (stereo unspecified) [3-(1-benzofuran-2-carbonyl)-1-[2-(dimethylamino)ethyl]-4-hydroxy-2-(4-hydroxy-3-methoxyphenyl)-2H-pyrrol-5-one], COc1ccc(C2C(C(=O)c3cccs3)C(=O)C(=O)N2CCN2CCOCC2)c(OC)c1 (stereo unspecified) [2-(2,4-dimethoxyphenyl)-1-(2-morpholin-4-ylethyl)-4-oxidanyl-3-thiophen-2-ylcarbonyl-2H-pyrrol-5-one], CC(=O)C1C(=O)C(=O)N(CCc2c(C)[nH]c3ccccc23)C1c1cccc(F)c1 (stereo unspecified), COc1ccc(C(=O)C2C(=O)C(=O)N(CCc3c[nH]c4ccccc34)C2c2ccc(C(C)C)cc2)cc1 (stereo unspecified), COCCN1C(=O)C(=O)C(C(=O)c2ccccc2)C1c1cc(OC)ccc1OC (stereo unspecified) [(4E)-5-(2,5-dimethoxyphenyl)-1-(2-methoxyethyl)-4-[oxidanyl(phenyl)methylidene]pyrrolidine-2,3-dione], COc1ccc(C2C(C(=O)c3cc4ccccc4o3)C(=O)C(=O)N2CCN(C)C)cc1OC (stereo unspecified) [3-(1-benzofuran-2-carbonyl)-2-(3,4-dimethoxyphenyl)-1-[2-(dimethylamino)ethyl]-4-hydroxy-2H-pyrrol-5-one], O=C1NC(c2ccc(Br)cc2)C(C(=O)c2ccc(Cl)cc2)C1=O (stereo unspecified) [(4E)-5-(4-bromophenyl)-4-[(4-chlorophenyl)-hydroxy-methylene]pyrrolidine-2,3-quinone], O=C1C(=O)N(CCCn2ccnc2)C(c2cccnc2)C1C(=O)c1ccco1 (stereo unspecified) [3-(furan-2-carbonyl)-4-hydroxy-1-(3-imidazol-1-ylpropyl)-2-pyridin-3-yl-2H-pyrrol-5-one], Cc1ccc(C(=O)C2C(=O)C(=O)N(c3nnc(C)s3)C2c2ccc(C(C)C)cc2)cc1 (stereo unspecified) [(4E)-4-[(4-methylphenyl)-oxidanyl-methylidene]-1-(5-methyl-1,3,4-thiadiazol-2-yl)-5-(4-propan-2-ylphenyl)pyrrolidine-2,3-dione], COc1cc(C2C(C(C)=O)C(=O)C(=O)N2c2ccc(Br)cc2)ccc1O (stereo unspecified) [1-(4-bromophenyl)-3-ethanoyl-2-(3-methoxy-4-oxidanyl-phenyl)-4-oxidanyl-2H-pyrrol-5-one], O=C(O)CCCN1C(=O)C(=O)C(C(=O)c2ccccc2)C1/C=C/c1ccccc1 (stereo unspecified) [4-[(4E)-2,3-bis(oxidanylidene)-4-[oxidanyl(phenyl)methylidene]-5-[(E)-2-phenylethenyl]pyrrolidin-1-yl]butanoic acid], O=C1C(=O)N(CCCN2CCOCC2)C(c2cccnc2)C1C(=O)c1cc2ccccc2o1 (stereo unspecified) [3-(1-benzofuran-2-carbonyl)-4-hydroxy-1-(3-morpholin-4-ylpropyl)-2-pyridin-3-yl-2H-pyrrol-5-one], Cc1ccc(N2C(=O)C(=O)C(C(=O)c3ccccc3)C2c2cccc(F)c2)cc1Br (stereo unspecified) [(4Z)-1-(3-bromanyl-4-methyl-phenyl)-5-(3-fluorophenyl)-4-[oxidanyl(phenyl)methylidene]pyrrolidine-2,3-dione], COc1ccc(C(=O)C2C(=O)C(=O)NC2c2ccc(OC)cc2OC)cc1 (stereo unspecified) [(4Z)-5-(2,4-dimethoxyphenyl)-4-[(4-methoxyphenyl)-oxidanyl-methylidene]pyrrolidine-2,3-dione], O=C1C(=O)N(c2ccc(F)cc2)C(c2ccc(Br)cc2)C1C(=O)c1ccccc1 (stereo unspecified) [(4Z)-5-(4-bromophenyl)-1-(4-fluorophenyl)-4-[hydroxy(phenyl)methylene]pyrrolidine-2,3-quinone]
